Data reported in the supplement of paper PMC10307832.

Experiments:
Test in all cases: relative viability (nuclei count vs DMSO), 5 days (fraction); higher = more cells survive
[1] = compound: COc1nc(N)nc2c1ncn2[C@@H]1O[C@H](CO)[C@@H](O)[C@@H]1O [Nelarabine] + CC(=O)c1c(C)c2cnc(Nc3ccc(N4CCNCC4)cn3)nc2n(C2CCCC2)c1=O [Palbociclib] (partner 0.5 µM)
Summary of the method: (§1)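 After 5 days of treatment, lung cancer cells in 1536-well plates were fixed and stained in a single step (final 0.05% Triton X-100, 1% formaldehyde, 1 ug/ml Hoechst) and their nuclei counted on 4× images. Treatment had been applied by pin tool the day after seeding as one drug alone or as a fixed anchor-drug dose with five library-drug doses (not always all listed) in √10 steps. Relative viability is the nuclei count of treated wells divided by that of vehicle wells, and values are medians of duplicate plates.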

[2] = compound: COc1nc(N)nc2c1ncn2[C@@H]1O[C@H](CO)[C@@H](O)[C@@H]1O [Nelarabine] + CC(=O)Nc1cccc(-n2c(=O)n(C3CC3)c(=O)c3c(Nc4ccc(I)cc4F)n(C)c(=O)c(C)c32)c1 [Trametinib] (partner 0.02 µM)
Summary of the method: as §1

[3] = compound: C=CCn1c(=O)c2cnc(Nc3ccc(N4CCN(C)CC4)cc3)nc2n1-c1cccc(C(C)(C)O)n1 [Adavosertib] + CC(=O)c1c(C)c2cnc(Nc3ccc(N4CCNCC4)cn3)nc2n(C2CCCC2)c1=O [Palbociclib] (partner 0.5 µM)
Summary of the method: as §1

[4] = compound: COc1nc(N)nc2c1ncn2[C@@H]1O[C@H](CO)[C@@H](O)[C@@H]1O [Nelarabine] + CS(=O)(=O)N1CCN(Cc2cc3nc(-c4cccc5[nH]ncc45)nc(N4CCOCC4)c3s2)CC1 [Pictilisib] (partner 1 µM)
Summary of the method: as §1

| Cell Line | relative viability ([1]; first compound 0.01 µM) | relative viability ([1]; first compound 0.03162 µM) | relative viability ([1]; first compound 0.1 µM) | relative viability ([1]; first compound 0.3162 µM) | relative viability ([1]; first compound 1 µM) | relative viability ([2]; first compound 0.01 µM) | relative viability ([2]; first compound 0.03162 µM) | relative viability ([2]; first compound 0.1 µM) | relative viability ([2]; first compound 0.3162 µM) | relative viability ([2]; first compound 1 µM) | relative viability ([3]; first compound 0.01 µM) | relative viability ([3]; first compound 0.03162 µM) | relative viability ([3]; first compound 0.1 µM) | relative viability ([3]; first compound 0.3162 µM) | relative viability ([4]; first compound 0.01 µM) | relative viability ([4]; first compound 0.03162 µM) | relative viability ([4]; first compound 0.1 µM) | relative viability ([4]; first compound 0.3162 µM) | relative viability ([4]; first compound 1 µM) |
| --- | --- | --- | --- | --- | --- | --- | --- | --- | --- | --- | --- | --- | --- | --- | --- | --- | --- | --- | --- |
| NCI-H522 | 1.16 | 1.07 | 0.957 | 0.947 | 1.02 | 0.82 | 1.03 | 0.662 | 0.726 | 0.742 | 1.02 | 1.1 | 1.21 | 1.06 |  |  |  |  |  |
| NCI-H1993 | 0.721 | 0.516 | 0.692 | 0.547 | 0.647 | 0.531 | 0.48 | 0.479 | 0.487 | 0.588 | 0.656 | 0.701 | 0.725 | 0.934 | 0.718 | 0.81 | 0.894 | 0.779 | 0.899 |
| HCC-827 | 0.537 | 0.504 | 0.454 | 0.378 | 0.397 | 0.537 | 0.559 | 0.521 | 0.454 | 0.478 | 0.467 | 0.452 | 0.533 | 0.532 | 0.956 | 0.863 | 0.931 | 0.814 | 0.76 |
| NCI-H1299 |  |  |  |  |  |  |  |  |  |  |  |  |  |  | 1.06 | 0.899 | 0.857 | 0.861 | 0.757 |
| SW 1573 | 0.465 | 0.382 | 0.41 | 0.399 | 0.338 | 0.667 | 0.599 | 0.566 | 0.631 | 0.512 | 0.364 | 0.42 | 0.401 | 0.392 | 0.68 | 0.53 | 0.535 | 0.485 | 0.639 |
| NCI-H1944 | 0.367 | 0.267 | 0.343 | 0.362 | 0.316 | 0.448 | 0.443 | 0.401 | 0.388 | 0.376 | 0.298 | 0.317 | 0.317 | 0.319 | 0.369 | 0.322 | 0.339 | 0.399 | 0.366 |
| NCI-H2170 | 0.438 | 0.337 | 0.385 | 0.395 | 0.405 | 1.26 | 0.804 | 0.997 | 0.944 | 0.911 | 0.403 | 0.419 | 0.399 | 0.36 | 0.326 | 0.253 | 0.253 | 0.34 | 0.316 |
| SW 900 | 0.567 | 0.604 | 0.504 | 0.6 | 0.593 | 0.642 | 0.778 | 0.765 | 0.777 | 0.753 | 0.403 | 0.633 | 0.567 | 0.538 |  |  |  |  |  |
| NCI-H1563 |  |  |  |  |  |  |  |  |  |  |  |  |  |  | 0.605 | 0.634 | 0.641 | 0.67 | 0.626 |
| NCI-H2342 | 0.557 | 0.463 | 0.529 | 0.521 | 0.554 | 0.87 | 0.825 | 0.847 | 0.701 | 0.907 | 0.5 | 0.526 | 0.509 | 0.566 |  |  |  |  |  |
| IA-LM |  |  |  |  |  |  |  |  |  |  |  |  |  |  | 0.369 | 0.343 | 0.22 | 0.259 | 0.328 |
| Calu-6 |  |  |  |  |  |  |  |  |  |  |  |  |  |  | 1.15 | 0.856 | 0.977 | 0.891 | 0.962 |
